This note sets out measurements from patent publication US20240425473A2 (priority 2021, published 2024).

Like-named read-outs stand apart in the source and are kept apart here.

One series relates to IFNB1 expression. It is filed as cell-based, human. To be noted: 293T cells pre-treated 2 h, Sendai virus infection 9 h.
For series [1], the system named is SARS-CoV-2. It is filed as cell-based.
For series [2], the system named is antiviral genes IFNB1, ISG56, CCL5 and Mx1. Type of series: cell-based, human.
Another series deals with IFN-β promoter activity. It is filed as cell-based, human. To be noted: for IFN induction: Sendai virus; for effect on IFN induction, compared with AE-1-10: 293T cells with SeV infection.
In another series the test system is IRF3 deamidation. Briefly: IRF3 deamidation by two-dimensional gel electrophoresis and immunoblotting. The conditions noted are these: Caco-2 cells expressing ORF8 or A549 cells expressing Nsp8; 5 μM. Type of series: cell-based, human.
In series [3] the test system is SARS-CoV-2. Type of series: cell-based. This is another data set of the same source.
The next series relates to CTP synthesis. Type of series: cell-based, human.
The test system of the next series is NF-κB promoter activity. Type of series: cell-based, human. To be noted: 293T cells.
Series [4] addresses T1, CTPS1 (Homo sapiens, UniProt P17812).
T1 sequence (P17812 1-591): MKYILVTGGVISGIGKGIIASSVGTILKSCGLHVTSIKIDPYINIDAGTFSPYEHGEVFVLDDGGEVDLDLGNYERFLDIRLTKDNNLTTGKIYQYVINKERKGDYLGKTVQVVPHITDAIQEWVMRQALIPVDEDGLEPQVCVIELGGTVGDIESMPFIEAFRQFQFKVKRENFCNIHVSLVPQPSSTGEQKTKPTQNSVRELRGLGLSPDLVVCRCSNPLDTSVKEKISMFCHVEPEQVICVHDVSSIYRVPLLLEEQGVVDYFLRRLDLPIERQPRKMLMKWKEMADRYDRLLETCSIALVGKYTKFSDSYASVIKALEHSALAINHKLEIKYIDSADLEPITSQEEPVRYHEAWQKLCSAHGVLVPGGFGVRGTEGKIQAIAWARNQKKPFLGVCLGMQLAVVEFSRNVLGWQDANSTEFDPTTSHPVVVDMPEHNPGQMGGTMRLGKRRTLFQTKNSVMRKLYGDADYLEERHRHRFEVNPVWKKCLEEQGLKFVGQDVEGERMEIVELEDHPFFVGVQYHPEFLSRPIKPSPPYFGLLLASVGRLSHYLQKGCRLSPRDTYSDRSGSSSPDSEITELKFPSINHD
Type of series: binding. More on the design: Flag; expressed in transfected cells; host or cells: 293T cells expressing Flag-CTPS1. To be noted: 293T cells expressing Flag-CTPS1.

Series [5] has as its system SARS-CoV-2. More on the design: species or system mice. The conditions noted are these: mouse, in vivo, ip, 35 mg/kg.
Series [6] deals with T1, CTPS1. Briefly: Click-based cross-linking, affinity purification and mass spectrometry to identify cellular targets. Type of series: binding. Further details: endogenous in cells. The conditions noted are these: ranked lower than several other proteins; data not shown.
The target of series [7] is T1, CTPS1. Type of series: biochemical. Further details: made in house. To be noted: with respect to UTP, 2 mM ATP, 2 mM L-glutamine, 0.1 mM GTP, Michaelis-Menten.

As to `COc1cccc(NC(=O)c2cccc(NC(=O)CCl)c2)c1` [AE-1-10], in the series on IFNB1 expression, the IFNB1 expression entry is listed as “increased IFNB1 expression in a dose-dependent manner”. For the same molecule, in the series with SARS-CoV-2 [1], the “viral RNA” value is recorded as “reduced viral RNA”. In addition, in series [2], the antiviral gene expression result is on record as “elevated antiviral gene expression” and the “expression of antiviral genes (IFNB1, ISG56, CCL5, Mx1)” value is listed as “elevated”. The IFN induction entry with IFN-β promoter activity (CTPS1-depleted 293T cells) is given as “failed to do so”. Also, in the series with IFN-β promoter activity (control 293T cells), the IFN induction result is “elevated IFN induction”. Moreover, the “inhibition of IRF3 deamidation” value in the series with IRF3 deamidation is on record as “best efficacy to inhibit IRF3 deamidation”. The viral yield result in the series with SARS-CoV-2 [3] was “reduced viral RNA and yield”. Further, in the series with CTP synthesis, the “[15N]CTP and [15N]CDP” value is “reduced [^15N]CTP and, much more so [^15N]CDP in a dose-dependent manner”; the “intracellular concentration of [15N]CTP and [15N]CDP” value is “reduced the intracellular concentration of [^15N]CTP and [^15N]CDP”. In the series on NF-κB promoter activity, the NF-κB activation result is recorded as “no effect”.

As for `CCCCCNC(=O)c1ccc(NC(=O)CCl)s1` [B1], in the series with SARS-CoV-2 [1], the “reduction of viral RNA abundance compared to the vehicle (DMSO)” value (“reduction of viral RNA abundance … (DMSO)” for short) is on record as ~5 order of magnitude. The “effect on viral titer” value in the series on SARS-CoV-2 [3] is on record as “reduced viral titer to the limit of detection”.

Turning to `COc1ccccc1NC(=O)c1cc(NC(=O)CCl)cs1` [B2], the “reduction of viral RNA abundance … (DMSO)” value in the series with SARS-CoV-2 [1] is listed as ~5 order of magnitude. In addition, in the series on SARS-CoV-2 [3], the “effect on viral titer” value was “reduced viral titer to the limit of detection”.

With `O=C(CCl)Nc1cccc(C(=O)NC2CCCC2)c1` [B4], the “reduction of viral RNA abundance relative to C9” value with SARS-CoV-2 [1] is reported as “significant improvement compared to C9”.

Take `Cc1ccccc1NC(=O)c1cccc(NC(=O)CCl)c1` [B5]: the “reduction of viral RNA abundance relative to C9” value with SARS-CoV-2 [1] is “significant improvement compared to C9”. Further, the “effect on viral titer” value with SARS-CoV-2 [3] is reported as “better effect than C9”.

Regarding `COc1cccc(NC(=O)c2cc(NC(=O)CCl)cs2)c1` [B7], the “reduction of viral RNA abundance … (DMSO)” value with SARS-CoV-2 [1] is ~5 order of magnitude. Further, the “effect on viral titer” value in the series on SARS-CoV-2 [3] is recorded as “reduced viral titer to the limit of detection”.

As for `CCc1ccccc1NC(=O)c1cccc(NC(=O)CCl)c1` [B8], the “reduction of viral RNA abundance relative to C9” value in the series with SARS-CoV-2 [1] is “significant improvement compared to C9”. Besides, the “effect on viral titer” value in the series on SARS-CoV-2 [3] is “better effect than C9”.

With `C#CCOc1cccc(NC(=O)c2cccc([N+](=O)[O-])c2)c1` [BE-2-10], the “reaction (labeling) with CTPS1” value at CTPS1 [4] was “reacted with CTPS1 in a dose-dependent manner”.

As for `O=C(CCl)Nc1cccc(C(=O)NC2CCCCC2)c1` [C1], the “effect on IFN induction, compared with AE-1-10” value (shortened to “effect … compared with AE-1-10”) with IFN-β promoter activity was “no effect”.

Turning to `COc1cccc(N(C)C(=O)c2cccc(NC(=O)CCl)c2)c1` [C2], the “effect … compared with AE-1-10” value with IFN-β promoter activity was “no effect”.

Regarding `COc1ccc(NC(=O)c2cccc(NC(=O)CCl)c2)cc1` [C4], in the series on IFN-β promoter activity, the “effect … compared with AE-1-10” value is reported as “improved effect to increase IFN induction”.

With `COc1ccccc1NC(=O)c1cccc(NC(=O)CCl)c1` [C5], in the series with IFN-β promoter activity, the “effect … compared with AE-1-10” value is given as “improved effect to increase IFN induction”. Moreover, the “antiviral activity in SARS-CoV-2 infection, compared to AE-1-10” value with SARS-CoV-2 [3] is listed as “more robust antiviral activity”.

Turning to `O=C(CCl)Nc1cccc(C(=O)Nc2ncc[nH]2)c1` [C6], the “effect … compared with AE-1-10” value in the series with IFN-β promoter activity is “modest effect”.

Regarding `O=C(Nc1ccccc1)c1ccc([N+](=O)[O-])s1` [C7], the “effect … compared with AE-1-10” value with IFN-β promoter activity is given as “modest effect”.

Take `O=C(CCl)Nc1csc(C(=O)Nc2ccccc2)c1` [C8]: the “effect … compared with AE-1-10” value in the series on IFN-β promoter activity is on record as “improved effect to increase IFN induction”.

For `CCCCCNC(=O)c1cccc(NC(=O)CCl)c1` [C9], the “reduction of viral RNA abundance … (DMSO)” value with SARS-CoV-2 [1] is given as ~2 order of magnitude. Besides, the “protection against SARS-CoV-2 infection” value with SARS-CoV-2 [5] is reported as “protect against infection”. Further, the “effect … compared with AE-1-10” value with IFN-β promoter activity is reported as “improved effect to increase IFN induction”. In addition, in the series on SARS-CoV-2 [3], the “antiviral activity in SARS-CoV-2 infection, compared to AE-1-10” value is listed as “more robust antiviral activity” and the “reduction of SARS-CoV-2 titer” value is given as ~3 order of magnitude.

`[N-]=[N+]=CC(=O)CC[C@H](N)C(=O)O` [DON, 6-diazo-5-oxo-L-norleucine, reference compound]: in the series on IFN-β promoter activity (CTPS1 depleted and control 293T cells), the “Sendai virus-induced IFN-β gene expression” value was “elevated”.

Turning to `C#CCOc1cccc(Nc2ncnc3ccc(NC(=O)CCl)cc23)c1` [Q6ca], the cellular target identification result at CTPS1 [6] is recorded as “identification of CTPS1 as a cellular target”.

As to “ORF7b: SARS-CoV-2 polypeptide transiently expressed in the 293T cells from which CTPS1 was purified”, in the series with CTPS1 [7], the Kcat came out at 0.0147 ± 0.006 s⁻¹ and the Km (usually the substrate concentration at which the rate is half of its maximum) came out at 30.5 ± 21.5 mM.

Take “ORF8: SARS-CoV-2 polypeptide transiently expressed in the 293T cells from which CTPS1 was purified”: in the series with CTPS1 [7], the Kcat is 0.0212 ± 0.0137 s⁻¹ and the Km was found to be 55.2 ± 50.3 mM.
